Results reported in PubChem BioAssay AID256 (DTP/NCI, 2004).
“And” between values parts separate entries of the source, which are not always exact repeats. Equal values may be shown once. Toxic doses and inconclusive results are not listed. How the source made its calls: active means survival T/C of 150% or more; inactive means T/C below 125% in these data.

System: CD2F1 mice, L1210 leukemia ip, survival T/C
Experiment: NCI In Vivo Anticancer Drug Screen. Data for tumor model L1210 Leukemia (intraperitoneal) in CD2F1 (CDF1) mice
Details: endpoint: mean survival time, higher = longer survival
How it was run: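 Transplantable tumor in mice; compound-treated vs vehicle-treated groups. Read-out = treated/control ratio of the measured endpoint.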

[1] = dose: 6.25 mg/kg/injection, schedule: Q04DX003 (ip), vehicle: saline with Tween-80
[2] = dose: 50.0 mg/kg/injection, schedule: Q04DX002 (ip), vehicle: saline with Tween-80
[3] = dose: 100.0 mg/kg/injection, schedule: Q04DX002 (ip), vehicle: saline with Tween-80
[4] = dose: 200.0 mg/kg/injection, schedule: Q04DX002 (ip), vehicle: saline with Tween-80
[5] = dose: 100.0 mg/kg/injection, schedule: Q01DX001 (ip), vehicle: saline with Tween-80
[6] = dose: 200.0 mg/kg/injection, schedule: Q01DX001 (ip), vehicle: saline with Tween-80
[7] = dose: 12.5 mg/kg/injection, schedule: Q04DX003 (ip), vehicle: saline with Tween-80
[8] = dose: 6.25 mg/kg/injection, schedule: Q01DX009 (ip), vehicle: saline with Tween-80
[9] = dose: 12.5 mg/kg/injection, schedule: Q01DX009 (ip), vehicle: saline with Tween-80
[10] = dose: 100.0 mg/kg/injection, schedule: Q01DX009 (ip), vehicle: saline with Tween-80
[11] = dose: 200.0 mg/kg/injection, schedule: Q01DX009 (ip), vehicle: saline with Tween-80
[12] = dose: 100.0 mg/kg/injection, schedule: Q04DX003 (ip), vehicle: saline with Tween-80
[13] = dose: 200.0 mg/kg/injection, schedule: Q04DX003 (ip), vehicle: saline with Tween-80
[14] = dose: 400.0 mg/kg/injection, schedule: Q04DX003 (ip), vehicle: saline with Tween-80
[15] = dose: 100.0 mg/kg/injection, schedule: Q01DX001 (ip), vehicle: saline
[16] = dose: 200.0 mg/kg/injection, schedule: Q01DX001 (ip), vehicle: saline
[17] = dose: 400.0 mg/kg/injection, schedule: Q01DX001 (ip), vehicle: saline
[18] = dose: 100.0 mg/kg/injection, schedule: Q04DX003 (ip), vehicle: saline
[19] = dose: 200.0 mg/kg/injection, schedule: Q04DX003 (ip), vehicle: saline
[20] = dose: 400.0 mg/kg/injection, schedule: Q04DX003 (ip), vehicle: saline
[21] = dose: 400.0 mg/kg/injection, schedule: Q01DX009 (ip), vehicle: saline with Tween-80

Measured: T/C

Cc1ccc(Sc2cccc3c(C)c4cccc5c4c(c23)C[S+]5c2ccc(C)cc2)cc1 (stereo not given)
inactive: [1] 98 % of control

[O-][n+]1ccc(-c2ccccc2)nc1
inactive: [2] 106 % of control | [3] 103 % of control | [4] 117 % of control

O=C1OC(=O)C2C1C1(c3ccccc3)OC2(c2ccccc2)c2ccccc21 (stereo not given)
inactive: dose: 50.0 mg/kg/injection, schedule: Q01DX001 (ip), vehicle: saline with Tween-80 100 % of control | [5] 100 % of control | [6] 100 % of control

COc1ccc2c(c1OC(C)=O)-c1cc(OC(C)=O)cc3c1C(C2)NCC3 (stereo not given)
inactive: dose: 3.13 mg/kg/injection, schedule: Q04DX003 (ip), vehicle: saline with Tween-80 96 % of control | [1] 94 % of control | [7] 94 % of control | dose: 25.0 mg/kg/injection, schedule: Q04DX003 (ip), vehicle: saline with Tween-80 94 % of control

OCCOCC(F)(F)F
inactive: [8] 100 % of control | [9] 90 % of control and 112 % of control | dose: 25.0 mg/kg/injection, schedule: Q01DX009 (ip), vehicle: saline with Tween-80 95 % of control and 102 % of control | dose: 50.0 mg/kg/injection, schedule: Q01DX009 (ip), vehicle: saline with Tween-80 94 % of control and 100 % of control | [10] 94 % of control and 100 % of control | [11] 94 % of control and 110 % of control

CN(C)c1ccc(-c2nnc(-c3ccc(N(C)C)cc3)nn2)cc1
inactive: [12] 93 % of control | [13] 92 % of control | [14] 95 % of control

CS(=O)(=O)C([N+](=O)[O-])S(C)(=O)=O
inactive: [15] 101 % of control | [16] 101 % of control | [17] 97 % of control

ClCCc1cnc[nH]1
inactive: dose: 25.0 mg/kg/injection, schedule: Q01DX005 (ip), vehicle: water 104 % of control | dose: 50.0 mg/kg/injection, schedule: Q01DX005 (ip), vehicle: water 101 % of control | dose: 100.0 mg/kg/injection, schedule: Q01DX005 (ip), vehicle: water 105 % of control

Cc1c2ccccc2cc2cccc[n+]12
inactive: dose: 2.5 mg/kg/injection, schedule: Q01DX009 (ip), vehicle: saline 95 % of control and 100 % of control | dose: 5.0 mg/kg/injection, schedule: Q01DX009 (ip), vehicle: saline 95 % of control and 101 % of control | dose: 10.0 mg/kg/injection, schedule: Q01DX009 (ip), vehicle: saline 102 % of control and 110 % of control | dose: 20.0 mg/kg/injection, schedule: Q01DX009 (ip), vehicle: saline 97 % of control and 106 % of control

NCCNC(=O)c1ccccc1
inactive: [18] 103 % of control | [19] 101 % of control | [20] 100 % of control

C1=C\C[n+]2ccccc2-c2cccc[n+]2C/1
inactive: dose: 7.5 mg/kg/injection, schedule: Q01DX001 (ip), vehicle: saline 95 % of control | dose: 7.5 mg/kg/injection, schedule: Q04DX003 (ip), vehicle: saline 96 % of control | dose: 15.0 mg/kg/injection, schedule: Q01DX001 (ip), vehicle: saline 95 % of control | dose: 15.0 mg/kg/injection, schedule: Q04DX003 (ip), vehicle: saline 97 % of control | dose: 30.0 mg/kg/injection, schedule: Q01DX001 (ip), vehicle: saline 98 % of control

Cc1cnccc1N=Nc1ccc(N(C)C)cc1
inactive: [10] 117 % of control | [11] 102 % of control | [21] 96 % of control

O=CNc1ccc([N+](=O)[O-])cc1
inactive: [10] 101 % of control | [11] 94 % of control | [21] 91 % of control

CC1=NN(c2ccccc2)C(=O)/C1=C/N(C)C
inactive: dose: 3.13 mg/kg/injection, schedule: Q01DX009 (ip), vehicle: saline with Tween-80 103 % of control | [8] 97 % of control | [1] 95 % of control | [9] 100 % of control | [7] 90 % of control

CC1=NN(c2cc(Cl)c(S(=O)(=O)O)cc2Cl)C(=O)C1
inactive: [10] 92 % of control | [11] 92 % of control | [21] 86 % of control

CCc1cc(C)cc(OC(=O)Nc2ccc(Cl)cc2)c1
inactive: [10] 93 % of control | [12] 107 % of control | [11] 100 % of control | [13] 93 % of control | [21] 96 % of control | [14] 91 % of control

O=C(Cc1ccc([N+](=O)[O-])cc1)Nc1ccc(S(=O)(=O)F)cc1
inactive: [15] 96 % of control | [16] 103 % of control | [17] 100 % of control

CC(=O)COc1ccc(C)cc1
inactive: [12] 105 % of control | [13] 96 % of control | [14] 98 % of control

CNC(=O)Oc1cccc(NC(=O)OCCCCl)c1
inactive: [5] 100 % of control | [6] 105 % of control | dose: 400.0 mg/kg/injection, schedule: Q01DX001 (ip), vehicle: saline with Tween-80 105 % of control

O=C1c2ccccc2C(=O)N1CC(O)COc1ccccc1 (stereo not given)
inactive: [12] 94 % of control | [13] 101 % of control | [14] 103 % of control

CN(C)P1(N)=NP(N)(N(C)C)=NP(N)(N(C)C)=N1 (stereo not given)
inactive: [18] 100 % of control | [19] 94 % of control | [20] 96 % of control

[I][Pt+2][I].[NH-]c1cccc(F)c1.[NH-]c1cccc(F)c1
inactive: dose: 3.13 mg/kg/injection, schedule: Q04DX003 (ip), vehicle: distilled water + Tween-80 102 % of control | dose: 6.25 mg/kg/injection, schedule: Q04DX003 (ip), vehicle: distilled water + Tween-80 102 % of control | dose: 12.5 mg/kg/injection, schedule: Q04DX003 (ip), vehicle: distilled water + Tween-80 106 % of control | dose: 25.0 mg/kg/injection, schedule: Q04DX003 (ip), vehicle: distilled water + Tween-80 106 % of control | dose: 50.0 mg/kg/injection, schedule: Q04DX003 (ip), vehicle: distilled water + Tween-80 112 % of control | dose: 100.0 mg/kg/injection, schedule: Q04DX003 (ip), vehicle: distilled water + Tween-80 118 % of control

CCCCCCC(=O)[O][Hg][c]1ccccc1
inactive: dose: 9.38 mg/kg/injection, schedule: Q01DX001 (ip), vehicle: saline 105 % of control | dose: 18.75 mg/kg/injection, schedule: Q01DX001 (ip), vehicle: saline 100 % of control | dose: 37.5 mg/kg/injection, schedule: Q01DX001 (ip), vehicle: saline 103 % of control

CN1CC=C(c2ccccc2)CC1
inactive: dose: 18.8 mg/kg/injection, schedule: Q04DX003 (ip), vehicle: saline 102 % of control | dose: 37.5 mg/kg/injection, schedule: Q04DX003 (ip), vehicle: saline 104 % of control | dose: 75.0 mg/kg/injection, schedule: Q01DX001 (ip), vehicle: saline 100 % of control

NCCCOS(=O)(=O)O
inactive: [10] 96 % of control | [18] 98 % of control | [11] 97 % of control | [19] 101 % of control | [21] 100 % of control | [20] 95 % of control

CC(C)c1cc2c(cc1O)C1(C)CCCC(C)(C(=O)O)C1CC2 (stereo not given)
inactive: [10] 98 % of control | [12] 95 % of control | [11] 102 % of control | [13] 96 % of control | [21] 101 % of control | [14] 94 % of control

Cc1nc(-c2ccccc2)[nH]c(=O)c1Cc1cc2c(cc1O)OCC2
inactive: [15] 100 % of control | [16] 101 % of control | [17] 100 % of control

CCC(=O)n1nc(-c2ccccc2)c2ccccc21
inactive: dose: 25.0 mg/kg/injection, schedule: Q04DX002 (ip), vehicle: saline with Tween-80 100 % of control | [2] 88 % of control | [3] 96 % of control | [4] 103 % of control

N#CC1(C#N)OC1(C#N)c1ccccc1 (stereo not given)
inactive: dose: 3.0 mg/kg/injection, schedule: Q01DX009 (ip), vehicle: saline with Tween-80 101 % of control | dose: 6.25 mg/kg/injection, schedule: Q01DX001 (ip), vehicle: saline with Tween-80 95 % of control | dose: 12.0 mg/kg/injection, schedule: Q01DX009 (ip), vehicle: saline with Tween-80 98 % of control

COc1ccc(OC)c(N=C2C(=O)Nc3ccc(Br)cc32)c1
inactive: [3] 91 % of control | [4] 91 % of control

COc1cccc(CCCC(=O)O)c1
inactive: dose: 100.0 mg/kg/injection, schedule: Q04DX003 (ip), vehicle: Klucel (hydroxypropylcellulose) (HPC) 101 % of control | dose: 200.0 mg/kg/injection, schedule: Q04DX003 (ip), vehicle: Klucel (hydroxypropylcellulose) (HPC) 101 % of control | dose: 400.0 mg/kg/injection, schedule: Q04DX003 (ip), vehicle: Klucel (hydroxypropylcellulose) (HPC) 101 % of control

COc1cc(Cl)cc(OC)c1
inactive: [10] 100 % of control | [11] 104 % of control | [21] 103 % of control
